Test results as given in patent publication US20220211860A1, “PEPTIDE DERIVATIVES AND CONJUGATES THEREOF FOR TREATING CANCER” (priority 2019, published 2022).
Where “and” joins values, the source holds several entries; their conditions need not be identical. Equal entries are not always repeated.

Assays:
[1] = target: T1, LHRH-R (Homo sapiens, UniProt P30968); experiment: Duolink proximity ligation assay (PLA) in MDA-MB-231; assay type: binding
T1 construct: endogenous in cells; host or cells: MDA-MB-231
T1 sequence (P30968 1-328): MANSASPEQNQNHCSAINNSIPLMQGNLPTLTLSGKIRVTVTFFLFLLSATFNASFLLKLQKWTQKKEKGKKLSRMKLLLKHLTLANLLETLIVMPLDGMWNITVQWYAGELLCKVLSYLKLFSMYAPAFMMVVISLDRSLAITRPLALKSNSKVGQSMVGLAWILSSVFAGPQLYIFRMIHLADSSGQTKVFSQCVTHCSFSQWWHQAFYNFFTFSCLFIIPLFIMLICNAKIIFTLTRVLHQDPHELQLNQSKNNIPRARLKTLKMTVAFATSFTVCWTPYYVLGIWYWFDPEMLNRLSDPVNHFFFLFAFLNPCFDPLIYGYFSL
Procedure: FIG. 6: Proximity ligation assay was used to show the protein-protein interaction between LHRH-R and LHRH in MDA-MB-231 (TNBC cell model) treated with LD5-me-vc-PABC-MMAE (1 μM) compared to negative control (PBS). Stained nucleus (DAPI blue) and PLA signal (TexasRed) were detected by LEICA SPE2 confocal LSM.
The binding affinity of the LD5-me-vc-PABC-MMAE conjugate to LHRH receptors was investigated by DuoLink assay.
Proximity ligation assay (PLA) was used to determine the interaction between LHRH-R and LHRH in LD5-mc-vc-PABC-MMAE treated cells. Duolink® Proximity Ligation Assay (PLA) allows in situ detection of endogenous proteins, protein modifications, and protein interactions with high specificity and sensitivity. Protein targets can be readily detected and localized with single molecule resolution in unmodified cells and tissues. Typically, two primary antibodies raised in different species are used to detect two unique protein targets. PLA reagents were added to the fixed MDA-MB-231 cells after incubating these cells with the primary antibody specific for LHRH-R and LHRH.

[2] = system: female NOD/SCID mice; experiment: Phase I: single-dose MTD in mice; assay type: in vivo; conditions: IV 10 mg/kg, 72 hr, individual animals, listed as LHRHD-(mc-vc-PABC)-MMAE
[3] = system: α-tubulin polymerisation; experiment: α-tubulin immunostaining in TNBC and normal breast cells; assay type: cell-based; conditions: normal breast cells, 1 µM, 18 h
Procedure: FIGS. 8A and 8B: The effect of MMAE and LD5-me-vc-PABC-MMAE (LM) on α-tubulin polymerization. (A) MDA-MB-231 (TNBC cell model) and normal breast cells (HMEC and MCF-10A) were treated with free MMAE and LM at 1 μM and PBS (control) followed by immunostaining of α-tubulin with primary and secondary antibodies. The α-tubulin signals were detected by LEICA SPE2 confocal LSM. (B) The α-tubulin signal intensity was measured by Fiji J software in normal breast cells (HMEC and MCF-10A) and MDA-MB-231. ****p<0.0001 is the significance in the signal intensity in each cell line treated with PBS and LM in comparison to MMAE-treated cells. ####p<0.0001 is the significance of the α-tubulin signal intensity in MDA-MB-231 cells treated with LM in comparison to MCF-10A and HMEC cells. […] Statistical analysis was made in Prism by two-way ANOVA followed by Tukey's multiple comparisons test. Error bars are standard deviations (STDV), n=8 (3 independent repeats).
The intracellular effects of MMAE on α-tubulin polymerisation were examined using α-tubulin immunostaining in TNBC cells (MDA-MB-231) and normal breast cells (MCF-10A and HMEC) treated with MMAE and MMAE conjugated with LD5 (LD5-mc-vc-PABC-MMAE). TNBC cells and normal breast cells were fixed after incubating with […] of MMAE and LD5-mc-vc-PABC-MMAE for 18 h along with PBS as a control. […]

[4] = In vitro metabolic stability (release of free MMAE, LC/MS), mouse plasma; assay type: in vitro ADME; conditions: 1 μM, 37° C., 10 days
Procedure: FIG. 11: Stability of LHRHD-(mc-vc-PABC)-MMAE (i.e. LD5-mc-vc-PABC-MMAE) in human plasma, mouse plasma, and cell culture media (c-media). The stability was measured based on the presence of free MMAE detected in the samples by LC-MS at each time point relative to time 0. Error Bars are standard deviations (STDV), p>0.05 and n=9 (mean is calculated from samples in triplicate in 3 independent experiments).
The metabolic stability of LD5-(mc-vc-PABC)-MMAE was investigated in cell culture media (c-media), human and mouse plasma. An LC/MS method was developed to detect both free MMAE and the presence of any degraded species from the whole construct, LD5-(mc-vc-PABC)-MMAE. To evaluate the stability of the valine-citrulline linkage, LD5-(mc-vc-PABC)-MMAE at 1 μM was incubated in c-media, human and mouse plasma at 37° C. for a period of 10 days. Aliquots were taken at pre-determined time intervals (t=0, 1, 2, 4, 7, 10 days) and analysed by LC/MS for the release of free MMAE.

[5] = system: MDA-MB-231; experiment: In vitro uptake in TNBC cells versus normal breast cells (confocal LSM); assay type: cell-based, human; conditions: 1 μM, 18 h; MDA-MB-231 compared to normal breast cells (MCF-10A and HMEC)
Procedure: FIGS. 7A and 7B: In vitro uptake study of LD5-me-vc-PABC-MMAE in TNBC cell line and normal breast cells. (A) MDA-MB-231 as a TNBC cell model, MCF-10A and HMEC as normal breast cells were treated with 1 μM of LD5-me-vc-PABC-MMAE (LM) for 18 h. LM was stained using monoclonal primary antibody specific for LHRH and secondary antibody conjugated with Rhodamine and detected by LEICA SPE2 confocal LSM. (B) The LM signal intensity was measured by Fiji J software in normal breast cells (HMEC and MCF-10A) and TNBC cell model (MDA-MB-231). […] The signal intensity in these cell lines were assessed by one-way ANOVA followed by Tukey's multiple comparisons test (****p<0.0001). Error bars are standard deviations (STDV), n=8 (3 independent repeats).
The uptake of LD5-me-vc-PABC-MMAE by TNBC cells was examined using the TNBC cell line (MDA-MB-231) which overexpresses LHRH-R. The uptake was compared with normal breast cells (LHRH-R negative control). LD5-me-vc-PABC-MMAE was incubated with […] for 18 h, and intracellular uptake of the conjugate was monitored using confocal LSM (FIG. 7A).
This was supported by quantitative comparisons of the intracellular uptake of LD5-mc-vc-PABC-MMAE in LHRH-R positive and negative cells (FIG. 7B).

## CCNC(=O)[C@@H]1CCCN1C(=O)[C@H](CCCNC(=N)N)NC(=O)[C@H](CC(C)C)NC(=O)[C@@H](CCCCNC1CC(=O)N(CCCCCC(=O)N[C@H](C(=O)N[C@@H](CCCNC(N)=O)C(=O)Nc2ccc(COC(=O)N(C)[C@H](C(=O)N[C@H](C(=O)N(C)[C@@H]([C@@H](C)CC)[C@@H](CC(=O)N3CCC[C@H]3[C@H](OC)[C@@H](C)C(=O)N[C@H](C)[C@@H](O)c3ccccc3)OC)C(C)C)C(C)C)cc2)C(C)C)C1=O)NC(=O)[C@H](Cc1ccc(O)cc1)NC(=O)[C@H](CO)NC(=O)[C@H](Cc1c[nH]c2ccccc12)NC(=O)[C@H](Cc1c[nH]cn1)NC(=O)[C@@H]1CCC(=O)N1 (stereo partly drawn) [LD5-mc-vc-PABC-MMAE]
[1]; MDA-MB-231, 1 μM
  binding affinity to LHRH receptors (DuoLink assay): high binding affinity
[1]; fixed MDA-MB-231 cells, qualitative
  interaction between LHRH-R and LHRH (PLA signal): confirmed interactions between LHRH-R and its ligand
[2]
  Body Weight: 21 g and 20 g (2×)
[3]
  α-tubulin signal compared to MMAE treatment: significantly higher
[4]
  total drug released as MMAE: less than 5%
[5]
  intracellular uptake: significantly higher uptake
